Experimental data reported in patent publication US9879011B2, “Amorphous form of linagliptin and process for preparation thereof” (CADILA HEALTHCARE LIMITED, priority 2012, dated 2018).

Assay: storage stability of amorphous form (polymorphic form by x-ray powder diffraction)
Format: physicochemical
Settings: amorphous form dried under vacuum at about 50° C. to 70° C.; ordinary stability conditions (75% RH at 40° C. or 60% RH at 25° C.); no change in polymorphic form by XRPD
Description: The obtained linagliptin may be dried under vacuum at about 50° C. to 70° C. for 6-12 hours to get amorphous form substantially free from residual solvents. Thus obtained amorphous linagliptin is stable under ordinary stability conditions at least for 3 months and doesn't change to crystalline form.
The stable amorphous form of linagliptin may be stored under nitrogen atmosphere and packed in a double polythene bag tied with a thread, keeping primary packing containing amorphous linagliptin inside a black color polyethylene bag containing oxygen busters and sealing it, placing above the double polyethylene bag inside a triple laminated bag optionally containing oxygen busters and sealing it, and placing the sealed triple laminated bag inside a closed high density polyethylene (HDPE) container and storing in controlled environment chamber at about 25° C. and/or 40° C.
The X-ray powder diffraction spectrum was measured under the following experimental conditions: • Instrument: X-Ray Diffractometer, D/Max-2200/PC Make: Rigaku, Japan. • X-Ray: Cu/40 kv/40 mA • Diverging: 10 • Scattering Slit: 10 • Receiving Slit: 0.15 mm • Monochromator RS: 0.8 mm • Counter: Scintillation Counter • Scan Mode: Continuous • Scan Speed: 3.0000/Min • Sampling Width: 0.020 • Scan Axes: Two Theta/Theta • Scan Range: 2.0000 to 40.0000 • Theta Offset: 0.0000

CC#CCn1c(N2CCC[C@@H](N)C2)nc2c1c(=O)n(Cc1nc(C)c3ccccc3n1)c(=O)n2C [amorphous linagliptin, 8-[(R)-3-aminopiperidin-1-yl]-7-(but-2-yn-1-yl)-3-methyl-1-[(4-methyl-quinazolin-2-yl)methyl]-3,7-dihydro-1H-purine-2,6-dione]
stable under ordinary stability conditions, doesn't change to crystalline form: ≥ 3 months
